Experiment [1] deals with collagenase. Briefly: Collagenase activity inhibition rate in blood after oral administration (in mice). Type of experiment: in vivo. The following applies: 30 mg/kg p.o.; for Collagenase Inhibition rates in blood after oral administration, After 2 hours: after 2 hours (as printed in head; text says 3 hours). On the procedure: (§1) Test compounds were suspended in 0.5% CMC and orally administered to three mice per group (the dose of the test compound, 30 mg/kg), and after a certain period of time, the blood was collected in the presence of heparin and ice-cooled. Plasma was obtained by centrifugation of this blood at 10,000 rpm for 5 minutes at 4° C. To 400 μl of this plasma was added to 600 μl of distilled water, and heated at 100° C. for 10 minutes. After cooling, the mixture was centrifuged at 10,000 rpm for 5 minutes and filtered using a micro-volume ultrafiltration unit (Molcut II, Millipore) to provide a sample (A) for use in collagenase activity measurement. Using this sample, collagenase activity inhibition rate in blood was determined by the following method.
(§2) The sample (A) above was mixed with a known amount of collagenase (the collagenase used was prepared by the method described in JP-A-3-103178) dissolved in a buffer for measurement (50 mM Tris-HCl buffer, pH 7.5, containing 0.2M sodium chloride, 5 mM calcium chloride, 0.05% Brij-35 and 0.02% sodium azide,), and collagenase activity A was measured according to the method of Nagai et al. (Japanese Journal of Inflammation, 4, 123 (1984)) using a fluorescein isothiocyanate-labeled type-I collagen as a substrate. […] Inhibition rate was determined from the following equation:
(§3) Inhibition rate (%)=(1-A/B)×100

Experiment [2] deals with collagenase. As to the kind of experiment: Collagenase activity inhibition rate in blood after oral administration (in rats). It is filed as in vivo. The conditions noted are these: 100 mg/kg p.o. On the procedure:
as §1, §2, §3
The same procedure as Test Example 1 was followed except that mice were replaced with rats (3 rats/group) and the dose of the tested compounds selected to be 100 mg/kg.

Data on nine molecules can be found in US5795891A, “Acylphenylglycine derivative and preventive and remedy for diseases caused by increased collagenase activity containing said compound as active ingredient” (Kanebo Ltd., priority 1993, dated 1998).

Structures can show the parent of a compound that is named as a salt.

For the molecule `CNC(=O)[C@H](Cc1ccc(OC)cc1)NC(=O)[C@@H](CC(=O)NO)CC(C)C` [Known compound X, [4-(N-hydroxyamino)-2(R)-isobutylsuccinyl]-L-O-methyltyrosine-N-methylamide, reference compound], in the experiment with collagenase [1], the “Collagenase Inhibition rates in blood after oral administration, After 1 hour” value (shortened to “Collagenase Inhibition rates … After 1 hour”) stood at 60% and the “Collagenase Inhibition rates in blood after oral administration, After 2 hours” value (“Collagenase Inhibition rates … After 2 hours” for short) is 43%. Also, in the experiment on collagenase [2], the “Collagenase Inhibition rates in blood after oral administration, After 1 hr.” value is given as 45%; the “Collagenase Inhibition rates in blood after oral administration, After 3 hrs.” value amounted to 44%; the “Collagenase Inhibition rates in blood after oral administration, After 6 hrs.” value came out at 33%.
In the case of `CNC(=O)C(NC(=O)C(CC(=O)NO)CC(C)C)c1ccccc1` [Compound A, [4-(N-hydroxyamino)-2(R)-isobutylsuccinyl]-L-phenylglycine-N-methylamide], in the experiment with collagenase [1], the “Collagenase Inhibition rates … After 1 hour” value amounted to 88% and the “Collagenase Inhibition rates … After 2 hours” value is on record as 83%. Besides, in the experiment on collagenase [2], the “Collagenase Inhibition rates in blood after oral administration, After 1 hr.” value is reported as 100%; the “Collagenase Inhibition rates in blood after oral administration, After 3 hrs.” value came out at 91%; the “Collagenase Inhibition rates in blood after oral administration, After 6 hrs.” value was 64%.
With `CCNC(=O)C(NC(=O)C(CC(=O)NO)CC(C)C)c1ccccc1` [Compound F, [4-(N-hydroxyamino)-2(R)-isobutylsuccinyl]-L-phenylglycine-N-ethylamide], in the experiment with collagenase [1], the “Collagenase Inhibition rates … After 1 hour” value was determined as 89% and the “Collagenase Inhibition rates … After 2 hours” value was found to be 53%.
For the molecule `CNC(=O)C(NC(=O)C(CC(=O)NO)CC(C)C)c1ccc(O)cc1` [Compound B, [4-(N-hydroxyamino)-2(R)-isobutylsuccinyl]-L-(p-hydroxyphenyl)glycine-N-methylamide], in the experiment with collagenase [1], the “Collagenase Inhibition rates … After 1 hour” value amounted to 84% and the “Collagenase Inhibition rates … After 2 hours” value came to 62%.
`CNC(=O)[C@H](Cc1c[nH]c2ccccc12)NC(=O)[C@@H](CC(=O)NO)CC(C)C` [Known compound Z, [4-(N-hydroxyamino)-2(R)-isobutylsuccinyl]-L-tryptophan-N-methylamide, reference compound]: in the experiment on collagenase [1], the “Collagenase Inhibition rates … After 1 hour” value stood at 58% and the “Collagenase Inhibition rates … After 2 hours” value amounted to 51%.
`CNC(=O)C(NC(=O)C(CC(=O)NO)CC(C)C)c1ccc(C(C)C)cc1` [Compound H, [4-(N-hydroxyamino)-2(R)-isobutylsuccinyl]-L-(p-isopropylphenyl)glycine-N-methylamide]: in the experiment on collagenase [1], the “Collagenase Inhibition rates … After 1 hour” value is reported as 74% and the “Collagenase Inhibition rates … After 2 hours” value came out at 63%.
In the same order, the values of `CNC(=O)C(NC(=O)C(CC(C)C)C(CN1CCOCC1)C(=O)NO)c1ccccc1` [Compound C, [4-(N-hydroxyamino)-2(R)-isobutyl-3-(morpholinomethyl)succinyl]-L-phenylglycine-N-methylamide hydrochloride] are 75% and 64%.
In the same order, the values of `CNCC(C(=O)NO)C(CC(C)C)C(=O)NC(C(=O)NC)c1ccccc1` [Compound E, [4-(N-hydroxyamino)-2(R)-isobutyl-3-(methylaminomethyl)succinyl]-L-phenylglycine-N-methylamide] are 82% and 61%.
With `CNC(=O)C(NC(=O)C(CC(=O)NO)CC(C)C)c1ccc(F)cc1` [Compound G, [4-(N-hydroxyamino)-2(R)-isobutylsuccinyl]-L-(p-fluorophenyl)glycine-N-methylamide], in the experiment on collagenase [1], the “Collagenase Inhibition rates … After 1 hour” value worked out at 83% and the “Collagenase Inhibition rates … After 2 hours” value amounted to 64%.
